Reference: US20170145002A1, “DEUTERATED ISOXAZOLE DERIVATIVES AND THEIR USE AS METABOTROPIC GLUTAMATE RECEPTOR POTENTIATORS” (AstraZeneca AB, priority 2015, published 2017)

Columns and labels:
[1] = Metabolic stability and intrinsic clearance in dog hepatocytes; format: in vitro ADME; conditions: cryopreserved dog hepatocytes 1.0×10^6 viable cells/mL, 37° C., up to 120 minutes; read-out: Dog Hepatocytes Median t1/2
Method: Stock solutions (10 mM) of the test compounds and control compounds were prepared in appropriate solvent (DMSO). The incubation medium (L-15 Medium) was placed in a 37° C. water bath, and warming was allowed for at least 15 minutes prior to use. 80 μL of acetonitrile was added to each well of the 96-well deep well plate (quenching plate). In a new 96-well plate, the 10 mM test compound solutions and the control compound solution were diluted to 100 μM by combining 198 μL of acetonitrile and 2 μL of 10 mM stock. A vial of cryopreserved dog hepatocytes was removed from storage, while ensuring that vials remain at cryogenic temperatures until thawing process ensued. As quickly as possible, the cells were thawed by placing the vial in a 37° C. water bath and gently shaking the vials. Vials remained in water bath until all ice crystals had dissolved and were no longer visible. After thawing was complete, vial was sprayed with 70% ethanol, and transferred to a biosafety cabinet. The vial was opened and the contents poured into the 50 mL conical tube containing thawing medium. The 50 mL conical tube was placed into a centrifuge and spun at 100 g for 10 minutes. Upon completion of spin, the thawing medium was aspirated and hepatocytes resuspended in enough incubation medium to yield ˜1.5×10^6 cells/mL. Using Cellometer® Vision, cells were counted and the viable cell density was determined. Cells with poor viability (<80% viability) were not acceptable for use. Cells were diluted with incubation medium to a working cell density of 1.0×10^6 viable cells/mL. 247.5 μL of hepatocytes were transferred into each well of a 96-well cell culture plate. The plate was placed on Eppendorf Thermomixer Comfort plate shaker to allow the hepatocytes to warm for 10 minutes. 2.5 μL of 100 μM test compound solution or control compound solution were added into an incubation well containing cells, and mixed to achieve a homogenous suspension at 0.5 minutes, which when achieved, defined the 0.5 minute time point. At the 0.5 minute time point, 20 μL of incubated mixture was transferred to wells in a “Quenching” plate followed by vortexing. The plate was incubated at 37 ° C. at 900 rpm on an Eppendorf Thermomixer Comfort plate shaker. At 5, 15, 30, 45, 60, 80, 100 minutes and 120 minutes, the incubation system was mixed and samples of 20 μL of incubated mixture were serially transferred at each time point to wells in a separate “Quenching” plate followed by vortexing. The quenching plates were centrifuged for 20 minutes at 4,000 rpm. […]
All calculations were carried out using Microsoft Excel. Peak areas were determined from extracted ion chromatograms. […]
The in vitro intrinsic clearance (in vitro Clint, in μL/min/10^6 cells) is determined from the slope value using the following equation: […]

[2] = Metabolic stability and intrinsic clearance in rat hepatocytes; format: in vitro ADME; conditions: cryopreserved rat hepatocytes 1.0×10^6 viable cells/mL, 37° C., up to 120 minutes; read-out: Rat Hepatocytes Median t1/2
Method: Stock solutions (10 mM) of Compounds A, B, C, D and of control compounds were prepared in the appropriate solvent (DMSO). The L-15 Medium was placed in a 37° C. water bath, and allowed to warm for at least 15 minutes prior to use. Acetonitrile (80 μL) was added to each well of the 96-well plate (quenching plate).
In a new 96-well plate, the solutions of the above compounds and of the control compounds were diluted to 100 μM by combining 198 μL of acetonitrile and 2 μL of each stock solutions. A vial of cryopreserved rat hepatocytes was removed from storage, while ensuring that the vial remain at cryogenic temperatures until thawing process ensued. As quickly as possible, the cells were thawed by placing the vial in a 37° C. water bath and gently shaking the vial. The vial remained in the water bath until all ice crystals had dissolved and were no longer visible. After thawing was completed, the vial was sprayed with 70% ethanol, and transferred into a biosafety cabinet. The vial was opened and the content poured into a 50 mL conical tube containing L-15 Medium. The vial was washed twice. The 50 mL conical tube was placed in a centrifuge and spun at 50 g for 3 minutes (room temperature). The L-15 medium was aspirated. A small volume of buffer (˜200 μL) was added and the pellet was re-suspended. The tube was filled with buffer to a volume of 50 mL and centrifugation was repeated. Upon completion of spin, the L-15 Medium was aspirated and the hepatocytes re-suspended in enough incubation medium to yield ˜1.5×10^6 cells/mL. Using Cellometer® Vision, the cells were counted and the viable cell density was determined. Cells with poor viability (<80% viability) were not acceptable for use. Cells were diluted with incubation medium to a working cell density of 1.0×10^6 viable cells/mL. Hepatocytes (247.5 μL) were transferred into each well of a 96-well cell culture plate. The plate was placed on an Eppendorf Thermomixer Comfort plate shaker to allow the hepatocytes to warm for 10 minutes.
Solutions (2.5 μL of 100 μM) of Compounds A, B, C, D and of the control compounds were added into an incubation well containing cells and mixed to achieve a homogenous suspension at 0.5 minutes, which when achieved, defined the 0.5 minute time point. At the 0.5 minute time point, the incubated mixture (20 μL) was transferred to wells in a “Quenching plate,” followed by vortexing. […]
All calculations were carried out using Microsoft Excel. Peak areas were determined from extracted ion chromatograms. The in vitro half-life (t1/2) of the parent compound was determined by regression analysis of the Ln percent parent disappearance vs. time curve.
The in vitro intrinsic clearance (in vitro Clint, in μL/min/10^6 cells) was determined from the slope value using the following equation: […]

SMILES	half-life at 1 μM [1]	half-life at 1 μM [2]
C[C@@H](C1CC1)N1Cc2cc(-c3cc(C(=O)N4CCOCC4)no3)cc(Cl)c2C1=O [Compound D, (S)-7-chloro-2-(1-cyclopropylethyl)-5-(3-(morpholine-4-carbonyl)isoxazol-5-yl)isoindolin-1-one, reference compound]	29.9 min	37.3 min
[2H]C1([2H])COCC([2H])([2H])N1C(=O)c1cc(-c2cc(Cl)c3c(c2)CN([C@@H](C)C2CC2)C3=O)on1 [Compound C, (S)-7-chloro-2-(1-cyclopropylethyl)-5-(3-(morpholine-4-carbonyl-3,3,5,5-d4)isoxazol-5-yl)isoindolin-1-one]	33.3 min	29.1 min
[2H]C1([2H])OC([2H])([2H])C([2H])([2H])N(C(=O)c2cc(-c3cc(Cl)c4c(c3)CN([C@@H](C)C3CC3)C4=O)on2)C1([2H])[2H] [Compound A, (S)-7-chloro-2-(1-cyclopropylethyl)-5-(3-(morpholine-4-carbonyl-2,2,3,3,5,5,6,6-d8)isoxazol-5-yl)isoindolin-1-one]	40.1 min	100 min
[2H]C1([2H])CN(C(=O)c2cc(-c3cc(Cl)c4c(c3)CN([C@@H](C)C3CC3)C4=O)on2)CC([2H])([2H])O1 [Compound B, (S)-7-chloro-2-(1-cyclopropylethyl)-5-(3-(morpholine-4-carbonyl-2,2,6,6-d4)isoxazol-5-yl)isoindolin-1-one]	40.1 min	36.8 min
